In brackets after ≈: the same amount, converted by molar mass.
Assays:
[1] = system: Mycoplasma gallisepticum MR-1 (wild strain, tylosin-resistant); assay: Mycoplasma gallisepticum air-sac infection method in chicken, strain MR-1;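 for Index of Isolation: index = (P×1 + Q×2 + R×3)/S with range 0 to 6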; format: in vivo, Mycoplasma gallisepticum; SPF chicken (white leghorn); conditions: 100 mg/kg × once oral, 10 mg/ml sol. b
Procedure: (2) Test of Effectiveness Mycoplasma gallisepticum air-sac infection method
MR-1 (wild strain, tylosin-resistant)
Inoculation: To the right air-sac of 9 days old SPF chicken (a white leghorn) which has abstained from water and feed one day before is inoculated 0.20-0.25 ml/chicken of fresh mycoplasma culture incubated for 24-48 hr and diluted with broth (usually 100 times). The concentration in Table 2 is shown in a unit of mg/ml.
Medium: Chick PPLO broth supplemented with 15% equine serum (Eiken Kagaku Co., Ltd.)
Administration: A compound of this invention dissolved or suspended in the following solution is orally and forcibly administered once by a cannula immediately after the infection.
Anatomization and Isolation of Microorganism: The chickens are anatomized 5 days after the infection, and the right and left air sacs are investigated whether they are attacked with a disease or not. The change caused by the disease is represented in four degrees; -: no change, +: slight, ++: medium and +++: serious. Microorganism is isolated from the right and left air-sacs and the trachea by using a sterilized applicator.
Judgement: Judgement is done through an index of an air-sac disease and an index of a microorganism-isolation.
Index of an air-sac-disease: First, indexes in the right and left air-sacs are separately calculated according to the following formula;
{degree of disease (0-3)×chickens}/anatomized chickens
and the index is calculated by the following formula;
(index of right air-sac)×1+(index of left air-sac)×2
Index of a microorganism isolation:
P: chickens from the right air-sac of which microorganism is isolated,
Q: chickens from the trachea of which microorganism is isolated,
R: chickens from the left air-sac of which microorganism is isolated, and
S: chickens investigated.

[2] = system: Mycoplasma gallisepticum T-7-T (wild strain, tylosin-resistant); assay: Mycoplasma gallisepticum air-sac infection method in chicken, strain T-7-T; format: in vivo, Mycoplasma gallisepticum; SPF chicken (white leghorn);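 for Index of Isolation: index = (P×1 + Q×2 + R×3)/S with range 0 to 6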
Outline: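 9-day-old SPF white leghorn chickens, fasted one day, received tylosin-resistant M. gallisepticum T-7-T culture (usually diluted 100×) into the right air sac. Compound was given as a single forced oral dose by cannula immediately after infection, in mg/ml. At day 5, air-sac lesions (0–3) were scored as a weighted index and organisms were re-isolated from the air sacs and trachea.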

[3] = system: Mycoplasma gallisepticum S6 (standard strain); assay: Anti-mycoplasma activity in vitro (MIC, broth dilution), strain S6; format: cell-based; conditions: Mg S6, 37° C., 7 days
Outline: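 Chick PPLO broth with 20% equine serum; 2-fold serial agent dilutions inoculated with culture diluted to 10^6 CCU/ml (inoculum concentration before addition). Incubated 7 days at 37 °C; MIC by broth dilution.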

[4] = 100 mg/kg × once oral, 10 mg/ml sol. b, inoculum 10^2
[5] = 200 mg/kg × once oral, 20 mg/ml sol. a, inoculum 1.9 × 10^5
[6] = 200 mg/kg × once oral, 20 mg/ml sol. c, inoculum 1.9 × 10^5

O=c1cccccc1O [Tropolone, tropolone]
Change of air-sac, left: + (chickens) ([1]; inoculum 0.3 × 10^5): 0
Change of air-sac, left: ++ (chickens) ([1]; inoculum 0.3 × 10^5): 0
Change of air-sac, left: +++ (chickens) ([1]; inoculum 0.3 × 10^5): 0
Change of air-sac, left: - (chickens) ([1]; inoculum 0.3 × 10^5): 6
Change of air-sac, right: + (chickens) ([1]; inoculum 0.3 × 10^5): 0
Change of air-sac, right: ++ (chickens) ([1]; inoculum 0.3 × 10^5): 0
Change of air-sac, right: +++ (chickens) ([1]; inoculum 0.3 × 10^5): 0
Change of air-sac, right: - (chickens) ([1]; inoculum 0.3 × 10^5): 6
Isolation, L (left air-sac) ([1]; inoculum 0.3 × 10^5): 3
Isolation, R (right air-sac) ([1]; inoculum 0.3 × 10^5): 4
Isolation, T (trachea) ([1]; inoculum 0.3 × 10^5): 3
Mycoplasma Isolated Chickens ([1]; inoculum 0.3 × 10^5): 6
Index of Isolation ([1]; inoculum 0.3 × 10^5, range 0-6.0): 3.2
Index of Disease ([1]; inoculum 0.3 × 10^5, range 0-9.0): 0
Change of air-sac, left: + (chickens) [2, 4]: 0
Change of air-sac, left: ++ (chickens) [2, 4]: 0
Change of air-sac, left: +++ (chickens) [2, 4]: 0
Change of air-sac, left: - (chickens) [2, 4]: 8
Change of air-sac, right: + (chickens) [2, 4]: 0
Change of air-sac, right: ++ (chickens) [2, 4]: 0
Change of air-sac, right: +++ (chickens) [2, 4]: 0
Change of air-sac, right: - (chickens) [2, 4]: 8
Isolation, L (left air-sac) [2, 4]: 1
Isolation, R (right air-sac) [2, 4]: 0
Isolation, T (trachea) [2, 4]: 1
Mycoplasma Isolated Chickens [2, 4]: 2
Index of Isolation ([2]; 100 mg/kg × once oral, 10 mg/ml sol. b, inoculum 10^2, range 0-6.0): 0.40
Index of Disease ([2]; 100 mg/kg × once oral, 10 mg/ml sol. b, inoculum 10^2, range 0-9.0): 0
Change of air-sac, left: + (chickens) [2, 5]: 0
Change of air-sac, left: ++ (chickens) [2, 5]: 0
Change of air-sac, left: +++ (chickens) [2, 5]: 0
Change of air-sac, left: - (chickens) [2, 5]: 5
Change of air-sac, right: + (chickens) [2, 5]: 0
Change of air-sac, right: ++ (chickens) [2, 5]: 0
Change of air-sac, right: +++ (chickens) [2, 5]: 0
Change of air-sac, right: - (chickens) [2, 5]: 5
Isolation, L (left air-sac) [2, 5]: 2
Isolation, R (right air-sac) [2, 5]: 2
Isolation, T (trachea) [2, 5]: 3
Mycoplasma Isolated Chickens [2, 5]: 3
Index of Isolation ([2]; 200 mg/kg × once oral, 20 mg/ml sol. a, inoculum 1.9 × 10^5, range 0-6.0): 2.8
Index of Disease ([2]; 200 mg/kg × once oral, 20 mg/ml sol. a, inoculum 1.9 × 10^5, range 0-9.0): 0
Change of air-sac, left: + (chickens) [2, 6]: 0
Change of air-sac, left: ++ (chickens) [2, 6]: 0
Change of air-sac, left: +++ (chickens) [2, 6]: 0
Change of air-sac, left: - (chickens) [2, 6]: 5
Change of air-sac, right: + (chickens) [2, 6]: 0
Change of air-sac, right: ++ (chickens) [2, 6]: 0
Change of air-sac, right: +++ (chickens) [2, 6]: 0
Change of air-sac, right: - (chickens) [2, 6]: 5
Isolation, L (left air-sac) [2, 6]: 4
Isolation, R (right air-sac) [2, 6]: 4
Isolation, T (trachea) [2, 6]: 5
Mycoplasma Isolated Chickens [2, 6]: 5
Index of Isolation ([2]; 200 mg/kg × once oral, 20 mg/ml sol. c, inoculum 1.9 × 10^5, range 0-6.0): 5.2
Index of Disease ([2]; 200 mg/kg × once oral, 20 mg/ml sol. c, inoculum 1.9 × 10^5, range 0-9.0): 0
MIC [3]: 0.2 µg/mL (≈ 1.64 µM)
